Here are results for eleven compounds from patent publication US10981932B2, “Macrocyclic indole derivatives” (Bayer Aktiengesellschaft, priority 2016, dated 2021).

Structures are written as SMILES. Like-named read-outs stand apart in the source and are kept apart here. Bounds are passed on as bounds.

In one data set the target is MCL-1 (Homo sapiens, UniProt Q07820). The experiment in a line: Protein-protein interaction assay MCL-1/Noxa BH3 peptide (MCL-1 assay), TR-FRET. The class given is binding. The settings on record: MBP-MCL-1 / Noxa BH3-derived peptide, median. A digest of the protocol:
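MBP-MCL-1 (1 nM final) was preincubated 10 min at 22 °C with compounds (11 concentrations, 0.1 nM–20 μM, duplicates) in Tris pH 7 buffer with NaCl, KF, Tween-20, DTT and BGG. After 1 h at 22 °C in the dark plus overnight at 4 °C, anti-MBP Eu-cryptate/streptavidin-XL665 TR-FRET was read; IC50 came from a 4-parameter fit.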

Data set [1] deals with SUDHL5. The experiment in a line: Induction of caspase-3/7 activity (Caspase-Glo 3/7), SUDHL5. It counts as cell-based. The settings on record: caspase-3/7 induction, SUDHL5 cells, 3 h treatment, median. An outline of the steps:
(§1)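 Caspase-Glo 3/7 luminescence measured after 3 h compound exposure at 37 °C in SUDHL10 and SUDHL5 cells. EC50 values come from background-corrected signals, with curve bottom set to 1 and plateau set to maximal induction by the reference compound.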

Data set [2] concerns SUDHL10. In words: Induction of caspase-3/7 activity (Caspase-Glo 3/7), SUDHL10. The conditions noted are these: caspase-3/7 induction, SUDHL10 cells, 3 h treatment, median. It counts as cell-based. An outline of the steps:
as §1

In data set [3] the test system is SUDHL5. In words: Anti-proliferative effect (CellTiter-Glo, 72 h), SUDHL5. The class given is cell-based. The conditions noted are these: SUDHL5 cells, antiproliferation, median, read-out: Antiproli SUDHL5 [M] (median). An outline of the steps:
(§2)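 Anti-proliferative activity is derived from ATP-based luminescence (CellTiter-Glo) in cells exposed to compound for 72 h at 37 °C, set against a time zero plate read at seeding.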

Another data set has as its system A2780. The experiment in a line: Anti-proliferative effect (CellTiter-Glo, 72 h), A2780. The class given is cell-based. The settings on record: A2780 cells, median, read-out: IC50 antiproliferation assay A2780 [M] (median). An outline of the steps:
as §2

A further data set deals with MV-4-11. In words: Anti-proliferative effect (CellTiter-Glo, 72 h), MV-4-11. The settings on record: MV-4-11 cells, median, read-out: IC50 antiproliferation assay MV-4-11 [M] (median). The class given is cell-based. A digest of the protocol: as §2
The subject of data set [4] is SUDHL5. The experiment in a line: Induction of cytotoxicity (CellTiter-Glo, 5 h), SUDHL5.
In data set [5] the test system is SUDHL10. In words: Induction of cytotoxicity (CellTiter-Glo, 5 h), SUDHL10.
Setting [6] is: Homo sapiens, SU-DHL-5, 72 h, 72 h.
Setting [7] is: Homo sapiens, SU-DHL-5, 5 h, read-out: Cytotox SUDHL5 [M] (median), SUDHL5 cells, cytotoxicity induction, CellTiter-Glo, 5 h, median.
[8] abbreviates: Homo sapiens, SU-DHL10, 5 h, read-out: Cytotox SUDHL10 [M] (median), SUDHL10 cells, cytotoxicity induction, CellTiter-Glo, 5 h, median.
The mark [9] stands for this setting: read-out: Cytotox SUDHL5 [M] (median), SUDHL5 cells, cytotoxicity induction, CellTiter-Glo, 5 h incubation, median.
Where [10] appears, read: read-out: Cytotox SUDHL10 [M] (median), SUDHL10 cells, cytotoxicity induction, CellTiter-Glo, 5 h incubation, median.

MCL-1, sequence (Q07820 whole entry): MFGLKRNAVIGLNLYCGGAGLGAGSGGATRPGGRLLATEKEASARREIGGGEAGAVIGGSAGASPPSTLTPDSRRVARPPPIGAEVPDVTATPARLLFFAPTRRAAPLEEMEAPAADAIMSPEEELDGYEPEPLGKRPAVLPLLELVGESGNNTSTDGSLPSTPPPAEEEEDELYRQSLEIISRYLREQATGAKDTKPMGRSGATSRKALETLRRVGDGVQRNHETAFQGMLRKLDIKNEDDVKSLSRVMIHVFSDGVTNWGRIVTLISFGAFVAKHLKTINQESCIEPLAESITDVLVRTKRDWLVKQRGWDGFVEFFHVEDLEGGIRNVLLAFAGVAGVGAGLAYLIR

As for `Cc1ccc2c(OCCCc3c(C(=O)O)n4c5c(cccc35)-c3c(nn(C)c3C)COCCCC4)cccc2c1` (racemic) [Example 307, (rac)-11,12-dimethyl-1-(3-((6-methylnaphthalen-1-yl)oxy)propyl)-4,5,6,7,9,11-hexahydropyrazolo[4′,3′:9,10][1,6]oxaazacycloundecino[8,7,6-hi]indole-2-carboxylic Acid], the IC50 on MCL-1 was 0.0129 µM; in the data set on SUDHL5 [3] (setting [6]), 1.19e-05 M; in the data set on A2780 (Homo sapiens, A2780, 72 h) it was 1.76e-05 M; in the data set with MV-4-11 (Homo sapiens, MV4-11, 72 h), 1.84e-05 M; in the data set with SUDHL5 [4] (setting [7]) it was above 3.3e-05 M; in the data set on SUDHL10 [5] (setting [8]) it was above 3.3e-05 M. The EC50 is above 33 µM in the data set with SUDHL5 [1] (Homo sapiens, SU-DHL-5, 3 h) and above 33 µM with SUDHL10 [2] (Homo sapiens, SU-DHL10, 3 h).
Take `Cc1c2c(nn1C)COCCCCn1c(C(=O)O)c(CCCOc3cccc4cc(C(F)(F)F)ccc34)c3cccc-2c31` (racemic) [Example 310]: the IC50 on MCL-1 worked out at 0.0331 µM; in the data set on SUDHL5 [3] (setting [6]) it was 5.42e-06 M; in the data set with A2780 (Homo sapiens, A2780, 72 h), 6.58e-06 M; with MV-4-11 (Homo sapiens, MV4-11, 72 h) it was 1.31e-05 M; in the data set on SUDHL5 [4] (setting [7]) it was 2.36e-05 M; in the data set on SUDHL10 [5] (setting [8]), 1.75e-05 M. For the same compound, the EC50 stood at 27.4 µM in the data set with SUDHL5 [1] (Homo sapiens, SU-DHL-5, 3 h) and 21.3 µM in the data set on SUDHL10 [2] (Homo sapiens, SU-DHL10, 3 h).
On to `Cc1nn(C)c2c1-c1cccc3c(CCCOc4cccc5c(Cl)cccc45)c(C(=O)O)n(c13)CCCCOC2` (racemic) [Example 316, (rac)-1-(3-((5-chloronaphthalen-1-yl)oxy)propyl)-10,12-dimethyl-4,5,6,7,9,10-hexahydropyrazolo[4′,3′:9,10][1,6]oxaazacycloundecino[8,7,6-hi]indole-2-carboxylic Acid], for which the IC50 is 0.00308 µM on MCL-1; 1.43e-05 M with SUDHL5 [3] (setting [6]); above 3.3e-05 M with A2780 (Homo sapiens, A2780, 72 h); above 3.3e-05 M in the data set with MV-4-11 (Homo sapiens, MV4-11, 72 h); 1.94e-05 M with SUDHL5 [4] (setting [7]); above 3.3e-05 M in the data set with SUDHL10 [5] (setting [8]). Moreover, the EC50 is 17.7 µM in the data set on SUDHL5 [1] (Homo sapiens, SU-DHL-5, 3 h) and above 33 µM with SUDHL10 [2] (Homo sapiens, SU-DHL10, 3 h).
Turning to `Cc1c2c(nn1C)COCCCCn1c(C(=O)O)c(CCc3cccc4ccccc34)c3cccc-2c31` (racemic) [Example 354, (rac)-2,3-dimethyl-7-[2-(naphthalen-1-yl)ethyl]-2,10,11,12,13,15-hexahydropyrazolo[4′,3′:9,10][1,6]oxazacycloundecino[8,7,6-hi]indole-8-carboxylic Acid], the IC50 on MCL-1 was 0.296 µM; with SUDHL5 [3] (setting [6]), above 3.3e-05 M; in the data set on A2780, above 3.3e-05 M; in the data set with A2780 (Homo sapiens, A2780, 72 h) it was 2.73e-05 M; with MV-4-11 (Homo sapiens, MV4-11, 72 h), above 3.3e-05 M; in the data set on SUDHL5 [4] (setting [7]), above 3.3e-05 M. Also, the IC50 in the data set with SUDHL10 [5] (setting [8]) was above 3.3e-05 M. Further, the EC50 in the data set on SUDHL5 [1] (Homo sapiens, SU-DHL-5, 3 h) was above 33 µM; in the data set on SUDHL10 [2] (Homo sapiens, SU-DHL10, 3 h), above 33 µM.
Regarding `Cc1c2c(nn1C)COCCCCn1c(C(=O)O)c(CCc3ccc(C(F)(F)F)cc3)c3cccc-2c31` (racemic) [Example 355, (rac)-2,3-dimethyl-7-{2-[4-(trifluoromethyl)phenyl]ethyl}-2,10,11,12,13,15-hexahydropyrazolo[4′,3′:9,10][1,6]oxazacycloundecino[8,7,6-hi]indole-8-carboxylic Acid], the IC50 against MCL-1 was 1.51 µM; with SUDHL5 [3] (setting [6]), 3.2e-05 M; with A2780 (Homo sapiens, A2780, 72 h) it was above 3.3e-05 M; with MV-4-11 (Homo sapiens, MV4-11, 72 h), above 3.3e-05 M; in the data set with SUDHL5 [4] (setting [7]) it was above 3.3e-05 M; in the data set on SUDHL10 [5] (setting [8]), above 3.3e-05 M. Besides, the EC50 was above 33 µM in the data set on SUDHL5 [1] (Homo sapiens, SU-DHL-5, 3 h) and above 33 µM in the data set on SUDHL10 [2] (Homo sapiens, SU-DHL10, 3 h).
`Cc1c2c(nn1C)CNCCCCn1c(C(=O)O)c(CCCOc3cccc4ccccc34)c3cccc-2c31` (racemic) [Example 356, (rac)-2,3-dimethyl-7-[3-(naphthalen-1-yloxy)propyl]-10,11,12,13,14,15-hexahydro-2H-pyrazolo[3′,4′:8,9][1,6]diazacycloundecino[10,11,1-hi]indole-8-carboxylic Acid]: the IC50 on MCL-1 is 0.00943 µM; in the data set on SUDHL5 [3] (setting [6]), 2.53e-05 M; in the data set on SUDHL5 [3] (72 h) it was above 3.3e-05 M; in the data set on A2780 (Homo sapiens, A2780, 72 h), above 3.3e-05 M; with MV-4-11 (Homo sapiens, MV4-11, 72 h), above 3.3e-05 M; in the data set with SUDHL5 [4] (setting [7]) it was above 3.3e-05 M. Also, the IC50 with SUDHL10 [5] (setting [8]) was above 3.3e-05 M. Besides, the EC50 was 27.8 µM in the data set on SUDHL5 [1] (Homo sapiens, SU-DHL-5, 3 h); above 33 µM in the data set on SUDHL5 [1]; above 33 µM with SUDHL10 [2] (Homo sapiens, SU-DHL10, 3 h).
For `Cc1c2c(nn1C)COCCCCn1c(C(=O)O)c(CCOc3ccc4ccccc4c3)c3cccc-2c31` (racemic) [Example 357, (rac)-2,3-dimethyl-7-[2-(naphthalen-2-yloxy)ethyl]-2,10,11,12,13,15-hexahydropyrazolo[4′,3′:9,10][1,6]oxazacycloundecino[8,7,6-hi]indole-8-carboxylic Acid], the IC50 on MCL-1 is 0.0409 µM; in the data set with SUDHL5 [3] (setting [6]), 3.27e-05 M; in the data set on A2780 (Homo sapiens, A2780, 72 h), above 3.3e-05 M; in the data set on MV-4-11 (Homo sapiens, MV4-11, 72 h), 3.19e-05 M; with SUDHL5 [4] (setting [7]), above 3.3e-05 M; in the data set on SUDHL10 [5] (setting [8]), above 3.3e-05 M. In addition, the EC50 in the data set with SUDHL5 [1] (Homo sapiens, SU-DHL-5, 3 h) was above 33 µM; with SUDHL10 [2] (Homo sapiens, SU-DHL10, 3 h) it was above 33 µM.
Consider `COc1c2c(nn1C)COCCCCn1c(C(=O)O)c(CCCOc3cccc4ccccc34)c3cccc-2c31` (single isomer, unassigned) [Example 208, 3-methoxy-2-methyl-7-[3-(naphthalen-1-yloxy)propyl]-2,10,11,12,13,15-hexahydropyrazolo[4′,3′:9,10][1,6]oxazacycloundecino[8,7,6-hi]indole-8-carboxylate], for which the IC50 turned out to be 0.00373 µM against MCL-1; 3.12e-06 M in the data set on SUDHL5 [3] (72 h incubation); 2.03e-05 M in the data set on A2780 (Homo sapiens, A2780, 72 h); 2.68e-06 M in the data set on MV-4-11 (Homo sapiens, MV4-11, 72 h); 2.63e-06 M in the data set with SUDHL5 [4] (setting [9]); 9.98e-06 M with SUDHL10 [5] (setting [10]). Further, the EC50 with SUDHL5 [1] came out at 2.99 µM; in the data set with SUDHL10 [2], 14 µM.
Regarding `Cn1nc(COC2CC2)c2c1COCCCCn1c(C(=O)O)c(CCCOc3cccc4ccccc34)c3cccc-2c31` (single isomer, unassigned) [Example 215, 3-[(cyclopropyloxy)methyl]-1-methyl-7-[3-(naphthalen-1-yloxy)propyl]-1,10,11,12,13,15-hexahydropyrazolo[4′,3′:9,10][1,6]oxazacycloundecino[8,7,6-hi]indole-8-carboxylic Acid], the IC50 against MCL-1 is 0.182 µM; in the data set on SUDHL5 [3] (72 h incubation) it was 1.48e-05 M; with A2780 it was above 3.3e-05 M; in the data set with MV-4-11, 2.33e-05 M; in the data set with SUDHL5 [4] (setting [9]) it was above 3.3e-05 M; with SUDHL10 [5] (setting [10]) it was above 3.3e-05 M. The EC50 in the data set on SUDHL5 [1] and in the data set on SUDHL10 [2] was above 33 µM each time.
On to `Cn1nc(C(F)(F)F)c2c1COCCCCn1c(C(=O)O)c(CCCOc3cccc4ccccc34)c3cccc-2c31` (single isomer, unassigned) [Example 217, 1-methyl-7-[3-(naphthalen-1-yloxy)propyl]-3-(trifluoromethyl)-1,10,11,12,13,15-hexahydropyrazolo[4′,3′:9,10][1,6]oxazacycloundecino[8,7,6-hi]indole-8-carboxylic Acid], for which the IC50 at MCL-1 was 0.00251 µM; with SUDHL5 [3] (72 h incubation), 5.58e-06 M; in the data set on A2780, 2.92e-05 M; in the data set with A2780 (Homo sapiens, A2780, 72 h) it was above 3.3e-05 M; in the data set with MV-4-11, 1.52e-05 M; in the data set with SUDHL5 [4] (setting [9]), 3.92e-06 M. Besides, the IC50 with SUDHL10 [5] (setting [10]) turned out to be 1.58e-05 M. Besides, the EC50 was found to be 3.5 µM in the data set with SUDHL5 [1] and 13.4 µM in the data set on SUDHL10 [2].
`Cn1nc(C(F)(F)F)c2c1COCCCCn1c(C(=O)O)c(CCCOc3cccc4ccccc34)c3cccc-2c31` (single isomer, unassigned) [Example 218, 1-methyl-7-[3-(naphthalen-1-yloxy)propyl]-3-(trifluoromethyl)-1,10,11,12,13,15-hexahydropyrazolo[4′3′:9,10][1,6]oxazacycloundecino[8,7,6-hi]indole-8-carboxylic Acid]: the IC50 at MCL-1 was 0.559 µM; with SUDHL5 [3] (72 h incubation), 1.71e-05 M; in the data set on A2780 it was 2.52e-05 M; in the data set on MV-4-11, 3.05e-05 M; in the data set with SUDHL5 [4] (setting [9]), 2.76e-05 M; with SUDHL10 [5] (setting [10]), above 3.3e-05 M. Further, the EC50 in the data set on SUDHL5 [1] and with SUDHL10 [2] was above 33 µM in each case.
